Publication PMC4985813, “Binding site elucidation and structure guided design of macrocyclic IL-17A antagonists” (Scientific Reports, 2016)
Values joined by “and” are separate entries in the source; they are usually repeats but may differ in a detail not shown here. Equal entries are not always repeated. “Also recorded” adds a separate entry of the source. Where two headings read alike, the source gives them in different places. Each block holds one molecule with its values, some of them ahead of it.

Tests used:
[1] = system: IL-17A-stimulated human keratinocytes; assay: Primary human keratinocytes cell assay, IL-8 production stimulated by IL-17A and TNF-α; type: cell-based; details: for IC50: Homo sapiens, Keratinocyte
Procedure: (§1) Primary human keratinocytes were cultured in Epilife medium with EDGS (Life Technology, Cascade Biologics) following product instructions. 5 days after establishing the culture from frozen vials, cells were plated at 10,000/well (80 μL) in culture media in 384-well plates. 4 h after plating, 10 μL of 10× compound stocks were added. Final DMSO concentration was 1%. Immediately after compound addition, 10 μL of a mixture of recombinant human IL-17A (R&D System, Minneapolis, MN) (5 ng/mL final) and TNF-α (Sigma-Aldrich, St Louis, MO) (10 ng/mL final), or TNF-α alone (10 ng/mL) were added to the cells. Cell assay plates were incubated for 48 h at 37 °C in a tissue culture incubator. Culture supernatants were harvested for analysis of IL-8 production using kit K211ANB-2 (Meso Scale Discovery, Rockville, MD).

IL-17F homodimer = biological target: T1, IL-17F homodimer (Homo sapiens, UniProt Q96PD4); assay: SPR selectivity binding, immobilized IL-17F; details: for binding to IL-17F (SPR): concentrations up to 13.3 μM
T1 construct: purchased R&D Systems, Minneapolis, MN
T1 sequence (Q96PD4 31-163): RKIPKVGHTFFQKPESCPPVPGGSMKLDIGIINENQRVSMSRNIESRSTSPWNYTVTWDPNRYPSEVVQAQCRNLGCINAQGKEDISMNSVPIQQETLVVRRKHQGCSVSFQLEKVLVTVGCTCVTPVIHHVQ
Procedure: (§2) The IL-17 SPR binding assay was run on a Biacore 3000 SPR instrument (GE Healthcare). Biotinylated Bap-tagged human IL-17A[23], was captured on a Biacore Streptavidin chip to achieve a protein density of 2500–3500 RUs on the surface. The SPR running buffer was 10 mM HEPES, pH 7.4, 150 mM NaCl, 0.01% P20 with 3% DMSO. Compound samples were injected at a flow rate of 50 μL/min for 180 s association and followed by running buffer for at least 600 s to detect dissociation. Compound concentrations were varied across a 2–3 fold dilution series. Each concentration was tested at least in duplicate. When compounds were tested in the presence of HAP, the running buffer contained 50 nM of HAP and all samples were prepared in the running buffer. Multiple blank injections were run before and after each compound series for references. The data were processed and analyzed with Scrubber 2.0 (BioLogical Software) and Biaeval software (GE Healthcare) to calculate the binding constants along with on- and off-rates.
(§3) Biotinylated BAP-tagged IL-17RA ECD[17] and chemically biotinylated IL-17F (R&D Systems, Minneapolis, MN) were separately immobilized on Biacore Streptavidin chips to permit selectivity testing of compounds. The binding experiments were carried out as described above.

IL-17RA = biological target: T2, IL-17RA (Homo sapiens, UniProt Q96F46); assay: SPR selectivity binding, immobilized IL-17RA ECD
T2 construct: Biotinylated BAP-tagged IL-17RA ECD[17]
T2 sequence (Q96F46 33-320 limits assumed): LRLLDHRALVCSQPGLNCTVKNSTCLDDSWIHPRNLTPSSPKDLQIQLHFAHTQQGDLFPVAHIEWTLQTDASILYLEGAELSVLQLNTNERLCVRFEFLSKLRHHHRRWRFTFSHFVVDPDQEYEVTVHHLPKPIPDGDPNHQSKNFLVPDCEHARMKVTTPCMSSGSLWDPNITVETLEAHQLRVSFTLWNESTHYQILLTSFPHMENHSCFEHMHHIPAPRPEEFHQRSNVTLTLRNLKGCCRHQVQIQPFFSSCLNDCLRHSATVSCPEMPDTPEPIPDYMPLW
Procedure: as §2, §3

[2] = biological target: T3, IL-17A/IL-17RA interaction (Homo sapiens, UniProt Q16552); assay: FRET assay of IL-17A/IL-17RA interaction; type: biochemical
T3 construct: purchased R&D Systems (IL-17RA-Fc only)
T3 sequence (Q16552 24-155): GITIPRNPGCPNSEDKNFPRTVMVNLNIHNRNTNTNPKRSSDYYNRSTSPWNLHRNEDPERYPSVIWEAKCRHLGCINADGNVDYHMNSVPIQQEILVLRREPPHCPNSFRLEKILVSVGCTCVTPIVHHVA
Procedure: Maximal FRET was observed when IL-17A was bound to IL-17RA and diminished FRET was observed when IL-17A was separated from IL-17RA. […] Compounds were tested using a half-log dilution series of 11 concentrations. The IL-17A was incubated with the Europium-Streptavidin to 1.5X final assay concentration for 1 h at room temperature. Compounds were prepared at 50X final concentration in 100% DMSO and 300 nL were added to a 384-well white assay plate (Greiner). 10 μL of the Europium labeled IL-17A was added to the compounds and incubated at room temperature for 1 h. […] The plates were covered and incubated at room temperature for 3 h. The FRET signal of the IL-17A/IL-17RA interaction was measured using an EnVision Multilabel plate reader (PerkinElmer). […] A four-parameter logistic nonlinear regression model using the percent inhibition at each concentration was used to calculate an IC50 for each compound.

[3] = biological target: T4, full-length recombinant IL-17A (Homo sapiens, UniProt Q16552); assay: Covalent labeling of IL-17A with sulfonyl fluoride probe (pull-down, protein mass analysis, peptide mapping); type: biochemical
T4 construct: made in house
T4 sequence (Q16552 24-155): as above
Procedure: Human recombinant IL-17A expressed in E. coli (5 μM) was incubated with and without compound 4 (50 μM) for 20 h at 37 °C in Dulbecco’s phosphate-buffered saline solution. To analyze cytokine homodimer, 10 μL of each sample was subjected to LC-MS using an Acquity class H UPLC (Waters) interfaced to a Xevo G2–S Q-Tof mass spectrometer (Waters). Chromatography was performed on a 2.1 × 100 mm Acquity BEH 300 Å C4 column (1.7 μm silica) (Waters) at 40 °C using the following gradient: 5% B/1 min, 5–85% B/10 min at 0.4 mL/min. Solvents: A, 0.05% formic acid in water; B, 0.05% formic acid in acetonitrile. […]
100 μL of each reaction sample was treated with three volumes of acetone at −20 °C for 2 h, after which the mixture was centrifuged at 14,000 × g for 10 min. […] Each digest was next treated with 4.5 mM DTT for 15 min at 37 °C, and 8 μL of each digest was analyzed on an Agilent Model 1100 HPLC system interfaced with a LTQ Orbitrap XL mass spectrometer (Thermo). […]
0.5 μM full length IL-17A (R&D Systems) was pre-incubated with DMSO or 50 μM a control compound in PBS at room temperature for 30 min, after which 5 μM sulfonyl fluoride probe compound 4 was added to the protein mixture (final sample volume 50 μl) and incubated for 1 h. […] Eluates were separated on a 12% NuPAGE Bis-Tris gel, transferred to a PVDF membrane, and then analyzed by immunoblot (anti-IL17A antibody from R&D Systems).

[4] = system: keratinocytes stimulated by TNF-α alone; assay: Primary human keratinocytes cell assay, baseline IL-8 production stimulated by TNF-α alone; type: cell-based; details: Keratinocyte, TNF-α 10 ng/mL alone
Procedure: as §1

human IL-17A = human IL-17A (Homo sapiens, UniProt Q16552); assay: SPR binding assay, immobilized IL-17A
Chain of human IL-17A (Q16552 24-155): as above
Procedure: as §2, with “When compounds were tested in the presence of HAP, the running buffer contained 50 nM of HAP and all samples were prepared in the running buffer.” left out

Compound: CN(C)C(=O)CC1(CC(=O)NCCc2ccc(NC(=O)[C@H](Cc3ccccc3F)NC(=O)c3ccnn3C)cc2)CCCC1 [Compound 1]
modulation of IL-8 production in IL-17A-stimulated human keratinocytes ([1]; in the presence of TNF-α): insufficient to modulate | binding to IL-17F homodimer (SPR) (IL-17F homodimer; concentrations up to 40 μM): no measurable binding; also recorded: did not show any measurable binding | binding to IL-17RA (SPR) (IL-17RA; concentrations up to 40 μM): no measurable binding; also recorded: did not show measurable binding

Compound: C#CCNC(=O)[C@@H](Cc1ccc(NC(=O)[C@H](Cc2ccccc2F)NC(=O)c2ccnn2C)cc1)NC(=O)CC1(CC(=O)Nc2cccc(S(=O)(=O)F)c2)CCCC1 [Compound 4]
IC50 [2]: 200 nM | covalent labeling of IL-17A ([3]; in the absence of HAP): covalently labeled | principal site of modification of IL-17A ([3]; peptide mapping): Tyr85

Compound: CNC(=O)[C@H]1Cc2ccc(cc2)NC(=O)C(NC(=O)c2ccnn2C)Cc2cc(ccc2Cl)-c2cccc(c2)CCC(=O)N1 (some centres unmarked) [Compound 3]
binding to IL-17F (SPR) (IL-17F homodimer): no measurable binding; also recorded: did not show measurable binding | IC50 [4]: > 30 µM | binding to IL-17RA (SPR) (IL-17RA; concentrations up to 13.3 μM): no measurable binding; also recorded: did not show measurable binding

IC50 ([1]; IL-17A 5 ng/mL and TNF-α 10 ng/mL, 48 h, read-out: Keratinocyte IC50 (IL-8)): 537 nM | IC50 ([1]; read-out: IC50, IL-17A-stimulated production of IL-8 in keratinocytes): < 540 nM | binding to IL-17F (SPR) (IL-17F homodimer): did not show measurable binding | Kd (human IL-17A; read-out: IL-17A SPR KD): 199 nM | Kd (human IL-17A; read-out: SPR KD): < 200 nM | IC50 [2]: < 35 nM and 34 nM | IC50 [4]: > 30 µM | binding to IL-17RA (SPR) (IL-17RA; concentrations up to 13.3 μM): did not show measurable binding
Compound: CNC(=O)[C@H]1Cc2ccc(cc2)NC(=O)[C@@H](NC(=O)c2ccnn2C)Cc2cc(ccc2Cl)Oc2ccc(cc2)C2(CCCC2)CC(=O)N1 [Compound 2]
